Test results as given in ChEMBL document CHEMBL5230098, “The ups and downs of Poly(ADP-ribose) Polymerase-1 inhibitors in cancer therapy-Current progress and future direction” (Eur J Med Chem, 2020).

Tests used:
[1] = biological target: Poly [ADP-ribose] polymerase 1 (Homo sapiens, UniProt P09874); assay: Inhibition of PARP1 (unknown origin)
[2] = Aqueous solubility of compound; assay type: physicochemical
[3] = Oral bioavailability in Sprague-Dawley rat at 4 mg/kg administered as single dose measured for 24 hrs by HPLC/tandem mass spectrometry; assay type: ADME, organism-based; settings: in vivo

Poly [ADP-ribose] polymerase 1, sequence (P09874 whole entry): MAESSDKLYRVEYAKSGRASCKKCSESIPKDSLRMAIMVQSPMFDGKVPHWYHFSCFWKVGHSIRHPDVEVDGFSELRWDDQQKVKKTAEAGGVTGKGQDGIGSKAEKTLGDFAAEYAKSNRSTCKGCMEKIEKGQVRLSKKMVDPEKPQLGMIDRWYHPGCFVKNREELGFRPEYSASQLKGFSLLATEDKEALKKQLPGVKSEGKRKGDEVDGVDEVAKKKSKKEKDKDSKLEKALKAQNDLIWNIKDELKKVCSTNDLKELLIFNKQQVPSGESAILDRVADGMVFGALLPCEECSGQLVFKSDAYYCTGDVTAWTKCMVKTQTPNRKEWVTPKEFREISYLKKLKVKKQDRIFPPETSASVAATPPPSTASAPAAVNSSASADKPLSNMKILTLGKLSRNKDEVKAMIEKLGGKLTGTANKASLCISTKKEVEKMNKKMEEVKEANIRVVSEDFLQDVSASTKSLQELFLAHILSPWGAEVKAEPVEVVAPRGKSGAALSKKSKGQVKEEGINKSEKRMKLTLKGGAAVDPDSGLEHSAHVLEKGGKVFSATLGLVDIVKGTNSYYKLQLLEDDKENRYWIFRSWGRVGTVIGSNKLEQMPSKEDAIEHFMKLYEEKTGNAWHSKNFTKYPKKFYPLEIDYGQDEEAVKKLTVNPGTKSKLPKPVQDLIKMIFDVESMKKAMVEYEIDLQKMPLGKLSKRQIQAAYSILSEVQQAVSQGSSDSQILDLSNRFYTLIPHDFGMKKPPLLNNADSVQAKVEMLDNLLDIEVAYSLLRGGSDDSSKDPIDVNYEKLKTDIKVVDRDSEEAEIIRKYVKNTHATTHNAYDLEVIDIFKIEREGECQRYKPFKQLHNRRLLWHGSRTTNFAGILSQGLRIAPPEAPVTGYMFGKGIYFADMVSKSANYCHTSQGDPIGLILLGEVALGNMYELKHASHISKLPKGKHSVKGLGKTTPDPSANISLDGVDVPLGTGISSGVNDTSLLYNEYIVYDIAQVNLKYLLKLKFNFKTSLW

| IC50 [1] [nM] | SMILES | other results |
| --- | --- | --- |
| 30000 | COc1cccc(C(N)=O)c1 | – |
| 150 | Cc1cccc2c1CCNC2=O | – |
| 150 | O=C1NCCc2c(OCCCCN3CCCCC3)cccc21 | – |
| – | O=C1CCC(=O)N1c1cc(Cc2n[nH]c(=O)c3ccccc23)ccc1F | Ki [1]: 12 nM |
| – | CNCc1ccc(-c2cc3cc(F)cc(C(N)=O)c3o2)cc1.Cl | solubility [2]: > 35 mg/mL |
| – | O=C(c1cc(Cc2n[nH]c(=O)c3ccccc23)ccc1F)N1CCn2nc(C(F)(F)F)nc2C1 [FLUZOPARIB] | bioavailability [3]: 35.8% |
